# Results: article PMC6270171, “In Vitro and In Vivo Antiangiogenic Activity of Caged Polyprenylated Xanthones Isolated from Garcinia hanburyi Hook. f” (Molecules, 2013)
# pIC50: −log10 of the molar value. Values joined by “and” are separate entries in the source; they are usually repeats but may differ in a detail not shown here. Identical values can stand only once. Like-named read-outs stand apart in the source and are kept apart here.
# Key:
# HeLa = experiment: MTT cytotoxicity assay, HeLa; type: cell-based; settings: Homo sapiens, read-out: IC50 HeLa
# Experimental: (§1) The xanthones 1–11 were tested for cytotoxicity against HeLa, A549, HCT-116, and HepG-2 human cancer cell lines and inhibition on the proliferation of the HUVEC cell line by using the MTT assay according to the described protocols.
# A549 = experiment: MTT cytotoxicity assay, A549; type: cell-based; settings: Homo sapiens
# Experimental: as §1
# HCT-116 = experiment: MTT cytotoxicity assay, HCT-116; type: cell-based; settings: Homo sapiens
# Experimental: as §1
# HepG-2 = experiment: MTT cytotoxicity assay, HepG-2; type: cell-based; settings: Homo sapiens
# Experimental: as §1
# HUVEC cell line = experiment: MTT assay, inhibition of proliferation of HUVEC cell line; type: cell-based; settings: Homo sapiens, read-out: IC50 HUVEC
# Experimental: as §1
# [1] = tested on: zebrafish embryos Tg(flk1:EGFP); experiment: Antiangiogenic activity assay on blood vessel formation in zebrafish embryos; type: in vivo, zebrafish (Danio rerio); settings: for Antiangiogenic activity to zebrafish embryos: concentrations varying from 1 μM to 16 μM; for Concentration with inhibitory effect on ISV formation (Figure 2): zebrafish embryos, 24 h, effects of 3, 7, 9 comparable to GA
# Experimental: (§2) A transgenic zebrafish line, Tg(flk1:EGFP), with the endothelial- specific flk1 promoter directing enhanced green fluorescent protein (EGFP) expression in all endothelial cells of the vasculature was used. Adult zebrafish were maintained at 28.5 °C in a recirculating aquaculture system. Zebrafish embryos were generated by natural pair-wise mating, collected in the morning and raised at 28.5 °C in embryo water (0.2 g/L of Instant Ocean Salt in distilled water). At 6 h post-fertilization (hpf), the embryos were sorted for viability and developmental stage (shield stage). The embryos were firstly placed in 24-well plates in 1 mL of embryo water with eight embryos per well. Then, the xanthones, at various concentrations, were added to embryo water of each well from the shield stage (about 6 h). Because the fish embryo receives nourishment from an attached yolk ball for the duration of the experiment, no additional maintenance was required during the duration of the experiments. After treatment with the drugs for 24 h, the embryos were anesthetized with 0.05% 2-phenoxyethanol in embryo water. One to three embryos were placed on carry sheet glass and each embryo was examined for the presence of ectopic vessels in the subintestinal vessel plexus (SIV) as an indication of antiangiogenic effect. Photographs were taken under a fluorescence microscope.
# zebrafish embryos [2] = experiment: Death rates of treated zebrafish embryos; type: in vivo, zebrafish (Danio rerio); settings: for Death Rate: eight embryos per well, control 0; for Concentration that caused the death of all zebrafish embryos: highest concentration tested
# Experimental: as §2
# zebrafish embryos [3] = experiment: Heart rates of treated zebrafish embryos; type: in vivo, zebrafish (Danio rerio)
# HUVEC = HUVEC wound migration assay; type: cell-based, human; settings: 0.5 μM, 24 h
# Experimental: The wound migration assay was performed as previously described. HUVECs were seeded at a plating density of 2 × 10^5 per well in 6-well plates which had been coated with 1% gelatin, cells grown in DMEM medium with 10% FBS overnight. After reaching 100% confluence, the cells were then gently scraped with a plastic tip to produce a wound area. After wounding cells were incubated with fresh DMEM medium with xanthones 1, 3, 7 and 9 at a concentration of 0.5 μM, the migration and cell movement throughout the wound area was examined after 24 h.
# [4] = MTT assay, 50% inhibition of cell growth
# [5] = A549, MTT assay, 50% inhibition of cell growth, read-out: IC50 A549
# [6] = HCT-116, MTT assay, 50% inhibition of cell growth, read-out: IC50 HCT-116
# [7] = HepG2, MTT assay, 50% inhibition of cell growth, read-out: IC50 HepG-2
# [8] = Tg(flk1:EGFP), zebrafish, in vivo, 24 h, 2 μM
# [9] = Tg(flk1:EGFP), zebrafish, in vivo, 24 h, 4 μM
# [10] = 1 μM, zebrafish embryos, control 21 per 10 s
# [11] = 2 μM, zebrafish embryos, control 21 per 10 s
# [12] = 4 μM, zebrafish embryos, control 21 per 10 s
# [13] = HCT-116, read-out: IC50 HCT-116
# [14] = 8 μM, zebrafish embryos, control 21 per 10 s
# [15] = Tg(flk1:EGFP), zebrafish, in vivo, 24 h, 8 μM
# [16] = Tg(flk1:EGFP), zebrafish, in vivo, 24 h, 16 μM
# [17] = Tg(flk1:EGFP), zebrafish, in vivo, 24 h, 32 μM
Structure (SMILES),pIC50 (HeLa; [4]),pIC50 (A549; [5]),pIC50 (HCT-116; [6]),pIC50 (HepG-2; [7]),pIC50 (HUVEC cell line; [4]),Antiangiogenic activity to zebrafish embryos [1],Concentration with inhibitory effect on ISV formation (Figure 2) [1],Death Rate (zebrafish embryos [2]; 1 μM),Death Rate (zebrafish embryos [2]; 2 μM),Death Rate (zebrafish embryos [2]; 4 μM),Heart Rate (zebrafish embryos [3]; [8]) [per 10 s],Heart Rate (zebrafish embryos [3]; [9]) [per 10 s],Inhibition of the migration of HUVEC (HUVEC),Heart Rate (zebrafish embryos [3]; [11]) [per 10 s],Heart Rate (zebrafish embryos [3]; [12]) [per 10 s],Death Rate (zebrafish embryos [2]; 8 μM),Heart Rate (zebrafish embryos [3]; [14]) [per 10 s],Heart Rate (zebrafish embryos [3]; [15]) [per 10 s],also measured
"CC(C)=CCC[C@]1(C)C=Cc2c(O)c3c(c(CC=C(C)C)c2O1)O[C@]12C(=C[C@@H]4C[C@H]1C(C)(C)O[C@@]2(C/C=C(/C)C(=O)O)C4=O)C3=O [Xanthone 1, gambogic acid]",5.80,5.81,6.19,6.11,6.14,displayed antiangiogenic activity,1 µM and 2 µM,0,1/8,8/8,3,0,remarkable inhibition,–,–,–,–,–,"Concentration that caused the death of all zebrafish embryos (zebrafish embryos [2]): 4 µM; Heart Rate (zebrafish embryos [3]; Tg(flk1:EGFP), zebrafish, in vivo, 24 h, 1 μM): 8 per 10 s"
"CC(C)=CCC/C(C)=C/Cc1c(O)c(CC=C(C)C)c2c(c1O)C(=O)C1=C[C@@H]3C[C@H]4C(C)(C)O[C@@](C/C=C(/C)C(=O)O)(C3=O)[C@@]14O2 [Xanthone 2, gambogenic acid]",4.94,5.32,5.32,5.20,5.39,–,–,0,0,8/8,–,–,–,18,0,–,–,–,Heart Rate (zebrafish embryos [3]; [10]): 21 per 10 s
"CC(C)=CCc1c2c(c(O)c3c1O[C@]14C(=C[C@@H]5C[C@H]1C(C)(C)O[C@@]4(C/C=C(/C)C(=O)O)C5=O)C3=O)C=CC(C)(C)O2 [Xanthone 3, morellic acid]",–,–,–,–,–,displayed antiangiogenic activity,4 µM,–,0,0,–,–,remarkable inhibition,8,6,8/8,0,–,"pIC50 (HeLa): 4.86; pIC50 (A549; A549, read-out: IC50 A549): 4.85; pIC50 (HCT-116; [13]): 5.05; pIC50 (HepG-2; HepG2, read-out: IC50 HepG-2): 4.87; pIC50 (HUVEC cell line): 5.21; Concentration that caused the death of all zebrafish embryos (zebrafish embryos [2]): 8 µM"
"CC(C)=CCC/C(C)=C/Cc1c(O)c2c(c3c1O[C@@H](C(C)(C)O)C3)O[C@]13C(=C[C@@H]4C[C@H]1C(C)(C)O[C@@]3(C/C=C(/C)C(=O)O)C4=O)C2=O [Xanthone 4, gambogenific acid]",5.12,4.95,5.35,4.99,5.61,–,–,–,0,0,21,17,–,–,–,0,–,13,–
"CC(C)=CCc1c2c(c(O)c3c1O[C@]14C(=C[C@@H]5C[C@H]1C(C)(C)O[C@@]4(C/C=C(/C)C=O)C5=O)C3=O)C=CC(C)(C)O2 [Xanthone 5, morellin isomers]",5.27,5.19,5.56,5.22,5.62,–,–,–,0,0,13,10,–,–,–,8/8,–,8,–
"CC(C)=CCC/C(C)=C/Cc1c(O)c(CC=C(C)C)c2c(c1O)C(=O)C1=C[C@@H]3C[C@H]4C(C)(C)O[C@@](C/C=C(\C)C=O)(C3=O)[C@@]14O2 [Xanthone 6, isogambogenin]",5.39,5.31,5.83,5.61,5.67,–,–,–,–,–,–,–,–,–,–,0,–,17,Death Rate (zebrafish embryos [2]; 16 μM): 1/8; Death Rate (zebrafish embryos [2]; 32 μM): 4/8; Heart Rate (zebrafish embryos [3]; [16]): 14 per 10 s; Heart Rate (zebrafish embryos [3]; [17]): 8 per 10 s
"CC(C)=CCC/C(C)=C/Cc1c(O)c(CC=C(C)C)c2c(c1O)C(=O)C1=C[C@@H]3C[C@H]4C(C)(C)O[C@@](C/C=C(/C)C=O)(C3=O)[C@@]14O2 [Xanthone 7, gambogenin]",5.49,5.31,5.89,5.19,5.98,displayed antiangiogenic activity,32 µM,–,–,–,–,–,remarkable inhibition,–,–,0,–,6,Heart Rate (zebrafish embryos [3]; [16]): 6 per 10 s; Heart Rate (zebrafish embryos [3]; [17]): 5 per 10 s
"CC(C)=CCCC1(C)C=Cc2c(O)c3c(c(CC=C(C)C)c2O1)O[C@]12C(=C[C@@H]4C[C@H]1C(C)(C)O[C@@]2(C/C=C(\C)C(=O)O)C4=O)C3=O (stereo partly drawn) [Xanthone 8, isogambogic acid]",5.32,5.54,5.80,5.20,6.04,–,–,–,0,1/8,17,13,–,–,–,6/8,–,6,–
"CC(C)=CCC/C(C)=C/Cc1c(O)c(CC=C(C)C)c2c(c1O)C(=O)C1=C[C@@H]3C[C@H]4C(C)(C)O[C@@](C/C=C(\C)C(=O)O)(C3=O)[C@@]14O2 [Xanthone 9, isogambogenic acid]",5.20,4.90,4.93,5.20,5.76,displayed antiangiogenic activity,4 µM,–,0,0,–,–,remarkable inhibition,8,5,8/8,0,–,Concentration that caused the death of all zebrafish embryos (zebrafish embryos [2]): 8 µM
"CC(C)=CCc1c2c(c(O)c3c1O[C@]14C(=C[C@@H]5C[C@H]1C(C)(C)O[C@@]4(CC=C(C)C)C5=O)C3=O)C=CC(C)(C)O2 [Xanthone 10, desoxymorellin]",–,–,–,–,–,–,–,0,0,0,–,–,–,17,16,0,16,–,"pIC50 (HeLa): 5.59; pIC50 (A549; A549, read-out: IC50 A549): 5.69; pIC50 (HCT-116; [13]): 5.92; pIC50 (HepG-2; HepG2, read-out: IC50 HepG-2): 6.00; pIC50 (HUVEC cell line): 6.05; Heart Rate (zebrafish embryos [3]; [10]): 20 per 10 s"
"CC(C)=CCC/C(C)=C/Cc1c(O)c(CC=C(C)C)c2c(c1O)C(=O)C1=C[C@@H]3C[C@H]4C(C)(C)O[C@@](CC=C(C)C)(C3=O)[C@@]14O2 [Xanthone 11, desoxygambogenin]",–,–,–,–,–,–,–,0,0,0,–,–,–,21,21,0,20,–,"pIC50 (HeLa): 5.53; pIC50 (A549; A549, read-out: IC50 A549): 5.74; pIC50 (HCT-116; [13]): 5.87; pIC50 (HepG-2; HepG2, read-out: IC50 HepG-2): 5.94; pIC50 (HUVEC cell line): 5.80; Heart Rate (zebrafish embryos [3]; [10]): 21 per 10 s"
